Source: patent US20020142362A1, “Colorimetric assay system using thiopeptolide substrate for detection of membrane-type matrix metalloproteinase” (priority 2000, published 2002)
Numbered stars: 1 amine (or outer) side, 2 acyl side, 3 side chain; on linkers, the order of the positions; unused ones are H or OH. Bridge positions count the residues as written; N and C are the ends. Square brackets hold non-standard residues; d marks the D form. Peptide text beside a SMILES is read from it. I, II: the chains in the order shown. Actinocin(9to1) = Cc1c2oc3c(C)ccc(C(=O)[*:1])c3nc-2c(C(=O)[*:2])c(N)c1=O; NMeV = CN[C@H](C(=O)O)C(C)C; Sar = CNCC(=O)O

Columns and labels:
MT-MMP [1] = experiment: Thiopeptolide assay on cultured trabecular meshwork cells (digitonin-permeabilized); format: cell-based, Rhesus monkey; settings: for thiopeptolide assay result versus control CACM: control cells (no Con A), 1 hour preincubation + 24 hours
Method: (§1) The assay of the present invention may be made by first preparing the selected biological sample and assay buffer. To prepare the biological sample, the biological sample such as but not limited to cultured cells were placed in microtiter plates and incubated at approximately 37° C. for up to approximately 96 hours with serum-free, defined medium. A portion of the serum-free, defined medium contained test compounds, while another portion was maintained free of test compounds to serve as controls. In some cases, the biological sample was then processed as a permeabilized “ghost” as described in Example 1 below. The biological sample was then rinsed several times with cold isotonic balanced saline or Tris(hydroxymethyl)aminomethane (TRIS) buffer at pH 7.2 - 7.5. The saline or buffer was then replaced by filter-sterilized, isotonic assay buffer (295 mOsm) consisting of approximately 50 mmol/L N-[2-hydroxyethyl]piperazine-N′-[2-ethane sulfonic acid] (HEPES), approximately 106 mmol/L sodium chloride, approximately 3.5 mmol/L potassium chloride, approximately 5 mmol/L calcium chloride, and approximately 0.02% (v/v) polyoxyethylene 23 lauryl ether (Brij 35) or a similar detergent, final pH approximately 7.5, at approximately room temperature. The Brij 35 was added fresh, and the final mixture was protected from excessive light exposure. The volume of assay buffer for each biological sample was approximately one-half the final assay mixture volume, the other half being made up of the thiopeptolide substrate/thiol reagent solution. For example, when 96-well microtiter plates were employed, the assay mixture volume was approximately 200 microliters.
Next the thiopeptolide substrate/thiol reagent solution was prepared. Preferably, the synthetic thiopeptolide substrate acetyl-prolyl-leucyl-glycyl-[2-mercapto-4-methyl-pentanoyl]-leucyl-glycyl-ethyl ester (Bachem Bioscience, Inc., King of Prussia, Pa.) is used in the solution due to its ready availability. The synthetic thiopeptolide was stored as a 40X, 20 mmol/L stock in DMSO, sealed from light and air, and stored with desiccant at approximately −70° C.. The thiol reagent, 4,4-dithiodipyridine,5,5′-dithio bis(2-nitro-benzoic acid) (DTNB) or the like, but preferably DTNB, was prepared as a 100X, 50 mmol/L stock in DMSO, and stored protected from light with desiccant at approximately room temperature. The combined thiopeptolide and DTNB were both diluted to appropriately 1 mmol/L in assay buffer without Brij 35 to yield a solution that was 2X for both chemicals after thorough mixing. The assay reaction was started when this 2X solution was added in a 1:1 ratio, with thorough mixing, to the assay buffer in which the cells had been equilibrated. The final concentration of both thiopeptolide and DTNB were 0.5 mmol/L.
The assay reaction was then allowed to progress to a suitable endpoint beyond which no further color reaction proceeded, possibly due to product inhibition. This endpoint is usually reached after approximately two hours. During the two hours the samples were gently agitated in an approximately 37° C. humidified incubator. Once the endpoint was reached the microtiter plates were placed into a plate reader and optical density (OD) was measured at 410 nm. Blank values, the OD readings for samples without cells, used to assess non-enzymatic, non-specific hydrolysis of substrate, were then subtracted from all sample OD measurements. The OD measurements taken at 410 nm may be used as a measure of the amount of MT-MMP present on the samples. The effects of experimental conditions on the expression of MT-MMP may then be compared with that of the control samples.
Details of the signal transduction process initiated by Con A culminating in proGelatinase A activation by MT-MMP remained to be elucidated. […]

proGelatinase A [2] = settings: cited from earlier work; for activation of Gelatinase A from the proenzyme form (zymography): HT-1080, in vitro incubation
MT-MMP [3] = experiment: Thiopeptolide assay on excised trabecular meshwork from human anterior segment organ culture; format: cell-based
Method: as §1
Next the thiopeptolide substrate/thiol reagent solution was prepared. Preferably, the synthetic thiopeptolide substrate acetyl-prolyl-leucyl-glycyl-[2-mercapto-4-methyl-pentanoyl]-leucyl-glycyl-ethyl ester (Bachem Bioscience, Inc., King of Prussia, Pa.) is used in the solution due to its ready availability. The synthetic thiopeptolide was stored as a 40X, 20 mmol/L stock in DMSO, sealed from light and air, and stored with desiccant at approximately −70° C.. […]
The assay reaction was then allowed to progress to a suitable endpoint beyond which no further color reaction proceeded, possibly due to product inhibition. […] Once the endpoint was reached the microtiter plates were placed into a plate reader and optical density (OD) was measured at 410 nm. Blank values, the OD readings for samples without cells, used to assess non-enzymatic, non-specific hydrolysis of substrate, were then subtracted from all sample OD measurements. […]

proGelatinase A [4] = experiment: Zymography of conditioned medium from cultured TM cells; format: cell-based
MT1-MMP [5] = experiment: Thiopeptolide assay on HT-1080 cells; format: cell-based, Human
From the text: The activation of proGelatinase A was shown in the noted Lohi and Stanton work to be inhibitable by tissue inhibitor of [matrix] metalloproteinases-2 (TIMP-2), and by a synthetic hydroxamate inhibitor of MMP's, but not by metalloproteinases-1 (TIMP-1). As additional evidence that the subject assay detects MT1-MMP in human and non-human primate TM cells, the zymographic results of the Lohi and Stanton work were reproduced using the subject assay, using the same methodology as described herein for TM cells, with […] and […].

MT1-MMP [6] = settings: HT-1080, in vitro incubation; cited from earlier work
MT-MMP [7] = experiment: Thiopeptolide assay on cultured TM cells with protease inhibitors; format: cell-based
From the text: Evidence has been presented by Mazzieri, et al., EMBO Journal 16: 2319-2332 (1997) that the urokinase-plasmin system may be in part responsible for activation of proGelatinase A in some cell systems. It was found in studying the subject thiopeptolide assay that a lesser fraction of the subject thiopeptolide assay activity could be inhibited by serine protease inhibitors, which are ineffective with MMP's. However, when these latter inhibitors were employed with TM cells stimulated by Con A, the percentage increase in thiopeptolide assay activity, compared to control cultures, was in fact augmented due to the Con A treatment.

[8] = Con A-treated cells (10 ug/ml), inhibitor 1 hour preincubation, then Con A plus inhibitor 24 hours, Act D 500 ng/ml, CHX 20 ug/ml

Row | Compound | activation of Gelatinase A from the proenzyme form (zymography) (proGelatinase A [2]) | activity in thiopeptolide assay following treatment (MT1-MMP [5]) | expression of MT1-MMP (Western immunoblot) (MT1-MMP [6]) | MT-MMP activity in thiopeptolide assay versus control CACM (MT-MMP [1]; [8]) | thiopeptolide assay result versus control CACM (MT-MMP [1]; Act D 500 ng/ml, CHX 20 ug/ml) | other results
1 | Concanavalin A [Con A] | activate | Increased activity | increase expression | – | – | MT-MMP expression over control levels (OD 410 nm, thiopeptolide assay) (MT-MMP [1]; Con A 10 ug/ml in CACM, 24 hours, vs control CACM): more than 200%; OD readings over control (MT-MMP [3]; 100 ug/ml Con A): 200%; OD readings over control (MT-MMP [3]; 30 - 80 ug/ml Con A): approximately 100%; thiopeptolide assay result versus control medium (MT-MMP [3]; Con A below 30 ug/ml): indistinguishable from simply incubating anterior segment quadrants in control medium; threshold Con A concentration for MT-MMP expression in intact TM (MT-MMP [3]; human anterior segment quadrants, 24 + 18 hour incubation): 30 µg/mL; activation of proGelatinase A (zymography) (proGelatinase A [4]): robust activation
2 | Cc1c2oc3c(C)ccc(C(=O)N[C@@H]4C(=O)N[C@H](C(C)C)C(=O)N5CCC[C@H]5C(=O)N(C)CC(=O)N(C)[C@@H](C(C)C)C(=O)O[C@@H]4C)c3nc-2c(C(=O)N[C@@H]2C(=O)N[C@H](C(C)C)C(=O)N3CCC[C@H]3C(=O)N(C)CC(=O)N(C)[C@@H](C(C)C)C(=O)O[C@@H]2C)c(N)c1=O [Act D, actinomycin D] (I: T[dV]P[Sar][NMeV] / II: T[dV]P[Sar][NMeV]; ester I:1-I:C, II:1-II:C; linker I:N-II:N via Actinocin(9to1)) | – | – | – | slightly, but discernibly, higher than control | not significantly different from control CACM alone | MT-MMP activity in thiopeptolide assay versus control CACM (MT-MMP [1]; Con A for 6 hrs, then Con A plus Act D for 18 hours): slightly, but discernibly, higher than control
3 | C[C@@H]1C[C@@H]([C@H](O)CC2CC(=O)NC(=O)C2)C(=O)[C@@H](C)C1 [CHX, cycloheximide] | – | – | – | not significantly different from control CACM alone | not significantly different from control CACM alone | –
4 | CCCCCCCCCCCCCC(=O)O[C@@H]1[C@@H](C)[C@@]2(O)[C@@H](C=C(CO)C[C@]3(O)C(=O)C(C)=C[C@@H]23)[C@@H]2C(C)(C)[C@]12OC(C)=O [PMA, phorbol 12-myristate 13-acetate] | activate | Increased activity | increase expression | – | – | –
5 | TIMP-1: metalloproteinases-1 (TIMP-1), tissue inhibitor of metalloproteinases | – | – | – | – | – | inhibition of activation of proGelatinase A (proGelatinase A [2]; HT-1080, Lohi and Stanton work): not; inhibition of activity increases in thiopeptolide assay (MT-MMP [7]): not
